According to patent publication US20250375475A1 (priority 2024, published 2025):

Experiments:
[1] = natural zinc, blood to brain across the BBB; cited from earlier work
astroglia = conditions: FIG. 2
microglia/macrophages = conditions: FIG. 7; LPS-lesioned rats
CD206 = CD206 expression (FIG. 5)
microglia = assay: Reactive oxygen species in microglia (FIG. 6)
circulating leukocytes = assay: Absolute number of circulating leukocytes (FIG. 3); conditions: rodents

Row | Molecule | zinc in the blood taken up by brain tissues [1] | GFAP in blood (GFAP; FIG. 1A, blood) | GFAP in the brain and periphery (GFAP; FIG. 1B, brain and periphery) | inflammation as evidenced by astroglia (astroglia) | oxidative stress as indicated by metabolic characteristics of microglia/macrophages (microglia/macrophages) | CD206 expression (CD206) | reactive oxygen species in microglia (microglia) | absolute number of circulating leukocytes (circulating leukocytes)
1 | [Zn] [zinc] | 2-3% | – | – | – | – | – | – | –
2 | ^64Zn L-Aspartate | – | significant reduction | significant reduction | lowered the inflammation significantly | significantly reduced oxidative stress | reduction | reduction | normalization
